Reference: PMC6472337, “L amino acid transporter structure and molecular bases for the asymmetry of substrate interaction” (Nature Communications, 2019)
Several values for one entry are separate records, joined by “and”; a condition that tells them apart may be missing. Equal values may be shown once. Read-outs that look alike come from different tables or passages of the source.

Columns and labels:
BasC S282A mutant = test: [3H]L-alanine transport in BasC S282A proteoliposomes; type: biochemical, Carnobacterium sp AT7; conditions: BasC S282A in PLs, WT = 100, n=1-3 and mean
Procedure: BasC was overexpressed as a C-terminal fusion with GFP in E. coli BL21 Star (DE3) cells grown in LB media. Single point mutations (Supplementary Table 2) were introduced using the QuikChange site-directed mutagenesis kit (Stratagene, San Diego, CA). All mutations were verified by sequencing. Expression was induced with 0.1 mM isopropyl-ß-D-thiogalactopyranoside at 37 °C for 22 h. Cells were harvested at 5000 × g for 15 min at 4 °C and stored at −80 °C until use. Cell pellets were thawed and resuspended in 20 mM Tris-Base, 150 mM NaCl, pH 7.4. […]
For uptake experiments, the desired intraliposomal amino acid concentration was added to the PL suspension, which was then subjected to three freeze/thaw cycles. […] Filters were then washed twice with 2 ml of stop buffer and dried, and the trapped radioactivity was counted. Transport measured in PLs containing no amino acid was subtracted from each data point to calculate the net exchange. […] BasC protein in PLs was determined by Coomassie blue staining in SDS-PAGE gels compared with known amounts of BasC in DDM micelles, determined by BCA assay (Pierce, Rockford, IL) and loaded in the same gel.

BasC Y236F mutant = test: [3H]L-alanine transport in BasC Y236F proteoliposomes; type: biochemical, Carnobacterium sp AT7
Procedure: BasC was overexpressed as a C-terminal fusion with GFP in E. coli BL21 Star (DE3) cells grown in LB media. Single point mutations (Supplementary Table 2) were introduced using the QuikChange site-directed mutagenesis kit (Stratagene, San Diego, CA). All mutations were verified by sequencing. Expression was induced with 0.1 mM isopropyl-ß-D-thiogalactopyranoside at 37 °C for 22 h. Cells were harvested at 5000 × g for 15 min at 4 °C and stored at −80 °C until use. Cell pellets were thawed and resuspended in 20 mM Tris-Base, 150 mM NaCl, pH 7.4. Cells were pelleted again at 5000 × g for 15 min at 4 °C, resuspended in lysis buffer (20 mM Tris-Base, 350 mM NaCl, pH 7.4, 1 mM pefabloc and complete mini protease inhibitor cocktail) (Roche, Basel Switzerland) and then broken using a Cell Disruptor (four cycles at 20,000 psi; Constant Systems Ltd., Daventry, UK). Cell debris was removed by centrifugation (15,000 × g for 1 h at 4 °C), and the supernatant was subjected to ultracentrifugation (200,000 × g for 2 h at 4 °C). The membrane pellet was resuspended in 20 mM Tris-Base, 150 mM NaCl, pH 7.4 and 10% glycerol at a protein concentration of 8–12 mg ml^−1, and then frozen in liquid nitrogen and stored at −80 °C until use.
BasC-GFP protein was reconstituted in E. coli polar lipids (Sigma-Aldrich, Madrid, Spain), as previously described. Lipids were dried under N2 and suspended in reconstitution buffer (20 mM Tris-Base, 150 mM NaCl, pH 7.4). The suspension was sonicated to clarity and purified BasC protein was added to reach the desired protein to lipid ratio of 1:100 (w:w). To destabilize the liposomes, 1.25% ß-D-octylglucoside was added and the mixture was incubated on ice with occasional agitation for 5 min. DDM and ß-D-octylglucoside were removed by dialysis for 40 h at 4 °C against 100 volumes of dialysis buffer. Proteoliposome (PL) suspensions were frozen in liquid N2 and stored at −80 °C until use.
For uptake experiments, the desired intraliposomal amino acid concentration was added to the PL suspension, which was then subjected to three freeze/thaw cycles. The extraliposomal amino acid content was then removed by ultracentrifugation (100,000 × g for 1 h at 4 °C) and PLs were resuspended to one-third of the initial volume with reconstitution buffer. Amino acid uptake assays were initiated after mixing 10 μl of cold PLs with 180 μl of transport buffer (20 mM Tris-Base, 150 mM NaCl, pH 7.4 plus 0.5–1 µCi/180 µl of radiolabeled L-amino acid (Perkin Elmer, Waltham, MA)) supplemented with the unlabeled amino acid to the desired concentration. This mixture was then incubated at room temperature for the indicated periods. […] Filters were then washed twice with 2 ml of stop buffer and dried, and the trapped radioactivity was counted. Transport measured in PLs containing no amino acid was subtracted from each data point to calculate the net exchange. […] BasC protein in PLs was determined by Coomassie blue staining in SDS-PAGE gels compared with known amounts of BasC in DDM micelles, determined by BCA assay (Pierce, Rockford, IL) and loaded in the same gel.

hAsc-1 S325A mutant = molecular target: T1, hAsc-1 S325A mutant (Homo sapiens, UniProt Q9NS82, S325A); test: [3H]L-alanine uptake in HeLa cells, hAsc-1 S325A; type: cell-based; conditions: WT = 100, n=1-3 and mean
T1 construct: expressed in transfected cells; host or cells: HeLa
T1 sequence (Q9NS82 1-523 S325A): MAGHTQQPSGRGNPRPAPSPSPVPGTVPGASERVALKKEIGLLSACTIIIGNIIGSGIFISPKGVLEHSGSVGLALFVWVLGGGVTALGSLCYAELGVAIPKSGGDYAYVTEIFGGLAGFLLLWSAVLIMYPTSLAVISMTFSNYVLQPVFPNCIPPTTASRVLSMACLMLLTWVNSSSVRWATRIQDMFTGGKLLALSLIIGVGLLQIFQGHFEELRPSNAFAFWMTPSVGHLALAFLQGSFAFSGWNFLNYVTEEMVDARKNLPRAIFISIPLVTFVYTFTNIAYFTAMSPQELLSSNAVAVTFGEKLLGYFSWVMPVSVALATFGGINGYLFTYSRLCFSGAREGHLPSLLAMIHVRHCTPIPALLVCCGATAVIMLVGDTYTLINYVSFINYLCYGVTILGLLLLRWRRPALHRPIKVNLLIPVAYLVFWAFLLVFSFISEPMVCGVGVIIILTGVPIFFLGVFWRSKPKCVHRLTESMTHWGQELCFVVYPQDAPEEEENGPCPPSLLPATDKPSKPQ
T1 sequence (P08195 1-529 partner): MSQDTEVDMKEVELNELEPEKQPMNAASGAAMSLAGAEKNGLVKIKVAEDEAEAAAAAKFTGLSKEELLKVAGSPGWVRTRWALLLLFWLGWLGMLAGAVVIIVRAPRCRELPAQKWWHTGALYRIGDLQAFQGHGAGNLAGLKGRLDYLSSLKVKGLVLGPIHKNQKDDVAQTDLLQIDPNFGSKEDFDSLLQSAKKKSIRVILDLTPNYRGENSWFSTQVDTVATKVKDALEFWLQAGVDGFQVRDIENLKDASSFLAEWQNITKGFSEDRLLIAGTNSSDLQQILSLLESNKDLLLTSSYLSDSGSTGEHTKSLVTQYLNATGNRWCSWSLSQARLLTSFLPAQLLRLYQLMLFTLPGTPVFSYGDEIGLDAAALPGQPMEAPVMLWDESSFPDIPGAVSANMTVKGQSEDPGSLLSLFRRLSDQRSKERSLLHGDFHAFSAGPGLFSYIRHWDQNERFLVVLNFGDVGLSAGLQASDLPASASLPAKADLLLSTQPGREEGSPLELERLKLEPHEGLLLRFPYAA
From the text: All mutations were verified by sequencing.

C[C@H](N)C(=O)O [L-alanine]
10 µM [3H]L-alanine/4 mM L-alanine exchange normalized to wild-type (BasC S282A mutant): 124.06 and 127.02 and 133.54 | 10 µM [3H]L-alanine/4 mM L-alanine exchange normalized to wild-type (BasC S282A mutant; mean): 128.21 | 10 µM [3H]L-alanine/4 mM L-alanine exchange normalized to wild-type (BasC Y236F mutant; BasC Y236F in PLs, WT = 100, n=1-3 and mean): 116.03 and 123.34 and 111.98 and 142.02 | Vmax (BasC Y236F mutant; Y236F): 4.58 ± 0.17 pmols L-alanine µg protein^−1 s^−1 | increase of cytoplasmic apparent affinity vs. wild-type BasC (BasC Y236F mutant; Y236F): ~ 4 fold | saturation of the transporter at 4 mM intraliposomal L-alanine (BasC Y236F mutant; Y236F mutant): fully saturated | increase in function (BasC Y236F mutant; Y236F vs wild-type, extracellular 10 μM [3H]L-alanine against 4 mM intraliposomal L-alanine): about 20% | Km (BasC Y236F mutant; extracellular side, Y236F, read-out: Km (o)): 50.2 ± 3.44 µM | Km (BasC Y236F mutant; intracellular side, Y236F, read-out: Km (i)): 560 ± 110 µM | transport of 10 µM [3H]L-alanine normalized to wild-type (hAsc-1 S325A mutant): 135.06 and 126.01 and 130.11 | transport of 10 µM [3H]L-alanine normalized to wild-type (hAsc-1 S325A mutant; mean): 130.39
